# Measured values from patent publication US20250345329A1, “HETEROARYL DERIVATIVE COMPOUND AND USES THEREOF” (VORONOI, INC., priority 2022, published 2025).
# pIC50: −log10 of the molar value.
# Target: T1, human EGFR (d746-750/T790M/C797S) (Homo sapiens, UniProt P00533, C797S/DEL746-750/T790M)
# T1 construct: human EGFR (d746-750/T790M/C797S) (668-end, SignalChem); purchased SignalChem
# Assay: EGFR C797S enzyme inhibition activity (ADP-Glo kinase assay)
# Assay type: biochemical
# Settings: purified enzyme 3 ng, ATP 5 μM, 25° C., 1 hour, luminescence; read-out: EGFR DTC Enzyme IC50
# Protocol: <Experimental Example 1> Evaluation of EGFR C797S Enzyme Inhibition Activity
# The compounds according to the present invention were reacted together with purified human EGFR (d746-750/T790M/C797S) (668-end, SignalChem) enzyme and a specific substrate and evaluated for enzyme inhibitory activity as described below. The reaction buffer consisted of 40 mM Tris-HCl pH 7.4, 20 mM MgCl2, 0.5 mg/ml BSA, and 50 μM DTT, and all reactions of the test substances were performed in reaction buffers. The compounds were serially diluted in 12 steps from a 10 mM DMSO stock, and the enzyme activity was measured at the final compound concentrations of 10, 3, 1, 0.3, 0.1, 0.03, 0.01, 0.003, 0.001, 0.0003, 0.0001, and 0 μM. In the assay, human EGFR (d746-750/T790M/C797S) (3 ng) enzyme was reacted with purified ATP (5 μM) and enzyme substrate (0.2 μg) at 25° C. for 1 hour, and the enzyme activity was determined using the in vitro ADP-Glo™ kinase assay (Promega). The enzyme activity inhibition was measured via luminescence by reacting the enzyme activity reaction solution, ADP-Glo reaction solution, and enzyme activity detection solution in a 2:2:1 ratio. Based on the luminescence of the enzyme activity of the solvent control group that was not treated with the compound, the degree of the enzyme activity inhibition depending on the treatment concentration of each compound was calculated, wherein the concentration of each compound that inhibited the enzyme activity by 50% was determined as the IC50 (nM) value, which was obtained using GraphPad Prism 8.4.3 (GraphPad software Inc., San Diego).
# T1 sequence (P00533 with tags, fused parts or gaps DEL746-750/T790M/C797S): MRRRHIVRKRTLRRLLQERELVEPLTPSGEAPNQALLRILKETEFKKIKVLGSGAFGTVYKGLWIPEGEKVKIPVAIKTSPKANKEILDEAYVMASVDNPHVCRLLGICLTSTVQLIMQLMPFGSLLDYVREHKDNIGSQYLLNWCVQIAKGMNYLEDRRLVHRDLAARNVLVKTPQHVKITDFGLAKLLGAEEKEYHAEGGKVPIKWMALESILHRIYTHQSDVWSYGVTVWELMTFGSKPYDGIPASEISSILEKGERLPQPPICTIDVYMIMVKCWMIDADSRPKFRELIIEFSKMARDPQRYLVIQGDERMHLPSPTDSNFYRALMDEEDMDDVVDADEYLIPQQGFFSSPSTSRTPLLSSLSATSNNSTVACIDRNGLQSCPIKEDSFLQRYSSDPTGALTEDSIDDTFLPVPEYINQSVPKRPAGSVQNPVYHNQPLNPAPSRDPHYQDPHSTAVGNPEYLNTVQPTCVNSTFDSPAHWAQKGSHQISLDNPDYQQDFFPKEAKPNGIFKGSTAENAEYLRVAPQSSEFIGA
row,pIC50,SMILES
1,> 7.30,"CNCCCNC(=O)c1cnc(Nc2ccnc(-c3cn[nH]c3)n2)cc1NC(C)C [Example 59, 6-((2-(1H-pyrazol-4-yl)pyrimidin-4-yl)amino)-4-(isopropylamino)-N-(3-(methylamino)propyl) nicotinamide]"
2,> 7.30,"CNCCCNC(=O)c1cnc(Nc2ccnc(-c3cnn(S(=O)(=O)C4CC4)c3)n2)cc1NC(C)C [Example 60, 6-((2-(1-(cyclopropylsulfonyl)-1H-pyrazol-4-yl)pyrimidin-4-yl)amino)-4-(isopropoylamino)-N-(3-(methylamino)propyl) nicotinamide]"
3,> 7.30,"CC(C)Nc1cc(Nc2ccnc(-c3cn[nH]c3)n2)ncc1C(=O)NC1CCNC1 (stereo not shown) [Example 67, 6-((2-(1H-pyrazol-4-yl)pyrimidin-4-yl)amino)-4-(isopropylamino)-N-(pyrrolidin-3-yl)nicotinamide]"
4,> 7.30,"CC(C)Nc1cc(Nc2ccnc(-c3cnn(S(=O)(=O)C4CC4)c3)n2)ncc1C(=O)NC1CCN(S(C)(=O)=O)CC1 [Example 69, 6-((2-(1-(cyclopropylsulfonyl)-1H-pyrazol-4-yl)pyrimidin-4-yl)amino)-4-(isopropylamino)-N-(1-(methylsulfonyl)piper-idin-4-yl)nicotinamide]"
5,> 7.30,"CC(C)Nc1cc(Nc2ccnc(-c3cnn(S(=O)(=O)C4CC4)c3)n2)ncc1C(=O)Nc1cc(N2CCC(N3CCN(C)CC3)CC2)cc(S(C)(=O)=O)c1 [Example 75, 6-((2-(1-(cyclopropylsulfonyl)-1H-pyrazol-4-yl)pyrimidin-4-yl)amino)-4-(isopropylamino)-N-(3-(4-(4-methylpiperazin-1-yl)piperidin-1-yl)-5-(methyl-sulfonyl)phenyl) nicotinamide]"
6,> 7.30,"CC(C)Nc1cc(Nc2ccnc(-c3cnn(S(=O)(=O)C4CC4)c3)n2)ncc1C(=O)NC[C@H]1CCCN1 [Example 77, (R)-6-((2-(1-(cyclopropylsulfonyl)-1H-pyrazol-4-yl)pyrimidin-4-yl)amino)-4-(isopropylamino)-N-(pyrrolidin-2-ylmethyl)nicotinamide]"
7,> 7.30,"C[C@@H]1CCOc2c(cnn2C)-c2nccc(n2)Nc2cc(c(C(=O)NCC#N)cn2)N1 [Example 84, (R)-N-(cyanomethyl)-1^1,6-dimethyl-1^1H-9-oxa-3,5-diaza-2(2,4)-pyrimidina-4(2,4)-pyridina-1(4,5)-pyrazolacyclo-nonaphane-4^5-carboxamide]"
8,> 7.30,"CC(C)Nc1cc(Nc2ccnc(-c3cnn(S(=O)(=O)C4CC4)c3)n2)ncc1NC(=O)Cc1ccc(C#N)cc1 [Example 85, 2-(4-cyanophenyl)-N-(6-((2-(1-(cyclopropylsulfonyl)-1H-pyrazol-4-yl)pyrimidin-4-yl)amino)-4-(isopropylamin)pyri-din-3-yl)acetamide]"
9,6.30 to 7.30,"C[C@H]1CCOc2c(cnn2C)-c2nccc(n2)Nc2cc(c(C(=O)Nc3cccc(C(F)(F)F)c3)cn2)N1 [Example 101, (S)-1^1,6-dimethyl-N-(3-(trifluoromethyl)phe-nyl)-1^1H-9-oxa-3,5-diaza-2(2,4)-pyrimidina-4(2,4)-pyridina-1(4,5)-pyrazolacyclo-nonaphane-4^5-carboxamide]"
10,> 7.30,"C[C@H]1CCOc2c(cnn2C)-c2nccc(n2)Nc2cc(c(C(=O)O)cn2)N1 [Example 117, (S)-1^1,6-dimethyl-1^1H-9-oxa-3,5-diaza-2(2,4)-pyrimidina-4(2,4)-pyridina-1(4,5)-pyrazolacyclo-nonaphane-4^5-carboxylic acid]"

# The next lines start with the molecule.
row,SMILES,pIC50
1,"CO[C@H]1CCN(c2nccc(Nc3cc(NC(C)C)c(C(=O)N4CC(CS(C)(=O)=O)C4)cn3)n2)C[C@H]1F (relative stereo) [Example 2, (6-((2-(cis-3-fluoro-4-methoxypiperidin-1-yl)pyrimidin-4-yl)amino)-4-(isopropylamino)pyri-din-3-yl)(3-((methylsulfonyl)meth-yl)azetidin-1-yl)methanone]",> 7.30
2,"CO[C@H]1CCN(c2nccc(Nc3cc(NC4CCOC4)c(C(=O)N4CC(CS(C)(=O)=O)C4)cn3)n2)C[C@H]1F (relative stereo) [Example 14, (6-((2-(cis-3-fluoro-4-methoxypiperidin-1-yl)pyrimidin-4-yl)amino)-4-((tetrahydrofuran-3-yl)amino)pyridin-3-yl)(3-((methylsulfonyl)meth-yl)azetidin-1-yl)methanone]",> 7.30
3,"CC(C)Nc1cc(Nc2ccnc(N3CCN(C)CC3)n2)ncc1C(=O)N1CC(CS(C)(=O)=O)C1 [Example 11, (4-(isopyropylamino)-4-((2-(4-methylpiperazin-1-yl)pyrimidin-4-yl)amino)pyridin-3-yl)(3-((methylsulfonyl)meth-yl)azetidin-1-yl)methanone]",6.30 to 7.30
4,"Cn1cc(Nc2cc(Nc3ccnc(-c4cnn(S(=O)(=O)C5CC5)c4)n3)ncc2C(=O)N2CC(CS(C)(=O)=O)C2)cn1 [Example 22, (6-((2-(1-(cyclopropylsulfonyl)-1H-pyrazol-4-yl)pyrimidin-4-yl)amino)-4-((1-methyl-1H-pyrazol-4-yl)amino)pyridin-3-yl)(3-((methylsulfonyl)meth-yl)azetidin-1-yl)methanone]",6.30 to 7.30
5,"CC(C)Nc1cc(Nc2ccnc(-c3cnn(S(=O)(=O)C4CC4)c3)n2)ncc1C(=O)N(C)CCN(C)C [Example 26, 6-((2-(1-(cyclopropylsulfonyl)-1H-pyrazol-4-yl)pyrimidin-4-yl)amino)-N-(2-(dimethylamino)ethyl)-4-(isopropylamino)-N-methylnicotinamide]",6.30 to 7.30
6,"CC(C)Nc1cc(Nc2ccnc(-c3cnn(S(=O)(=O)C4CC4)c3)n2)ncc1C(=O)N(C)CC#N [Example 28, N-(cyanomethyl)-6-((2-(1-(cyclopropylsulfonyl)-1H-pyrazol-4-yl)pyrimidin-4-yl)amino)-4-(isopropylamino)-N-methylnicotinamide]",6.30 to 7.30
7,"CC(C)Nc1cc(Nc2ccnc(-c3cnn(S(=O)(=O)C4CC4)c3)n2)ncc1C(=O)N1CC(N(C)C)C1 [Example 37, (6-((2-(1-(cyclopropylsulfonyl)-1H-pyrazol-4-yl)pyrimidin-4-yl)amino)-4-(isopropylamino)pyri-din-3-yl)(3-(dimethylamino)azeti-din-1-yl)methanone]",> 7.30
8,"CC(C)Nc1cc(Nc2ccnc(-c3cnn(CC4CC4)c3)n2)ncc1C(=O)N1CC(CS(C)(=O)=O)C1 [Example 43, (6-((2-(1-(cyclopropylmethyl)-1H-pyrazol-4-yl)pyrimidin-4-yl)amino)-4-(isopropylamino)pyri-din-3-yl)(3-((methylsulfonyl)meth-yl)azetidin-1-yl)methanone]",> 7.30
9,"CC(C)Nc1cc(Nc2ccnc(N3CCN(S(C)(=O)=O)CC3)n2)ncc1C(=O)N1CC(CS(C)(=O)=O)C1 [Example 44, (4-(isopropylamino)-6-((2-(4-(methylsulfonyl)piper-azin-1-yl)pyrimidin-4-yl)amino)pyridin-3-yl)(3-((methylsulfonyl)meth-yl)azetidin-1-yl)methanone]",6.30 to 7.30
10,"CC(C)Nc1cc(Nc2ccnc(N3CCNC(=O)C3)n2)ncc1C(=O)N1CC(CS(C)(=O)=O)C1 [Example 45, 4-(4-((4-(isopropylamino)-5-(3-((methylsulfonyl)meth-yl)azetidine-1-carbonyl)pyridin-2-yl)amino)pyrimidin-2-yl)piperazin-2-one]",6.30 to 7.30
11,"CC(C)Nc1cc(Nc2ccnc(-c3cnn(S(=O)(=O)C4CC4)c3)n2)ncc1C(=O)NCCc1ccccc1 [Example 52, 6-((2-(1-(cyclopropylsulfonyl)-1H-pyrazol-4-yl)pyrimidin-4-yl)amino)-4-(isopropylamino)-N-phenethylnicotinamide]",> 7.30
12,"CC(C)Nc1cc(Nc2ccnc(-c3cnn(S(=O)(=O)C4CC4)c3)n2)ncc1C(=O)NCCC(C)c1ccccc1 (stereo not shown) [Example 54, 6-((2-(1-(cyclopropylsulfonyl)-1H-pyrazol-4-yl)pyrimidin-4-yl)amino)-4-(isopropylamino)-N-(3-phenylbutyl)nicotina-mide]",6.30 to 7.30
